Like-named read-outs stand apart in the source and are kept apart here. One block for each molecule: values may come before it.
Legend:
SHMT2 [1] = target: T1, SHMT2 (Homo sapiens, UniProt P34897); test: TMABADH-coupled spectrophotometric aldolase assay (Km); format: biochemical
T1 sequence (P34897 30-504): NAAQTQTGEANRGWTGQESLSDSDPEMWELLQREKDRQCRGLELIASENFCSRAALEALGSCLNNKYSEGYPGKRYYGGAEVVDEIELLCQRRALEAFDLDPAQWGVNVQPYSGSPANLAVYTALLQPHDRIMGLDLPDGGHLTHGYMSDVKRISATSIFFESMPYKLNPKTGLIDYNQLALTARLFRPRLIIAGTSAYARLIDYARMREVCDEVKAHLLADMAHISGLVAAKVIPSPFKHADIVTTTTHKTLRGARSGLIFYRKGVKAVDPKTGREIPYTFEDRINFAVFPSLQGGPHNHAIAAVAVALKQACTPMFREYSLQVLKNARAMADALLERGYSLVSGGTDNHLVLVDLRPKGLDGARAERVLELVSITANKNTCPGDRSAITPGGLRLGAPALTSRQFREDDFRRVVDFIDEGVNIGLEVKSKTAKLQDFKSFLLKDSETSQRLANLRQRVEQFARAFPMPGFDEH

[2] = target: T2, low-specificity threonine aldolase eTA (Escherichia coli, UniProt P75823); test: TMABADH-coupled spectrophotometric aldolase assay; format: biochemical
T2 construct: gene ltaE
T2 sequence (P75823 whole entry): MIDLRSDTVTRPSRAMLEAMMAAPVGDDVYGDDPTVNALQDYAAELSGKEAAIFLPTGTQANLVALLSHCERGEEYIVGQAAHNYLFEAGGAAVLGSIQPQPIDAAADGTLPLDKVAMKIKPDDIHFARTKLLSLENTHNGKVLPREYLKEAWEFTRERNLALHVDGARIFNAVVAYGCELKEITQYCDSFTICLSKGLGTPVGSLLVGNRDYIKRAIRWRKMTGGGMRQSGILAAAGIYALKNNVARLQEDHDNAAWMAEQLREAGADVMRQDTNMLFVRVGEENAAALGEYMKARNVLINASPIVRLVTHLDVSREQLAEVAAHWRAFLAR

SHMT1 [3] = target: T3, SHMT1 (Homo sapiens, UniProt P34896); test: TMABADH-coupled spectrophotometric aldolase assay (Km); 1H NMR; format: biochemical
T3 sequence (P34896 2-483): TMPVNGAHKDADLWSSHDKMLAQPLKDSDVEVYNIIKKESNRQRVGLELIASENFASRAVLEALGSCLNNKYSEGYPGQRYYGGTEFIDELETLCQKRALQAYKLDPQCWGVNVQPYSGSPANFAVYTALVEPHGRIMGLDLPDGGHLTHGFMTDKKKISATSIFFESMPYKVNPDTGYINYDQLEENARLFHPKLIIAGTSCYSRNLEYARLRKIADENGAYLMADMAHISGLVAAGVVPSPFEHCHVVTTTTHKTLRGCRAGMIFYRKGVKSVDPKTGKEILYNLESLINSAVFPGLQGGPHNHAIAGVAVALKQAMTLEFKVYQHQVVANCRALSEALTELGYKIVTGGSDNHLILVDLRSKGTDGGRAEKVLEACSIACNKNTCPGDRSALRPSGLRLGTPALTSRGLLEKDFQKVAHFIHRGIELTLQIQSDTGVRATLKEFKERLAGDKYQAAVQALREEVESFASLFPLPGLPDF

KYAT1 = target: T4, KYAT1 (Homo sapiens, UniProt Q16773); test: spectrophotometric kynurenine aminotransferase assay at […] nm, Lineweaver-Burk; format: biochemical
T4 sequence (Q16773 1-422): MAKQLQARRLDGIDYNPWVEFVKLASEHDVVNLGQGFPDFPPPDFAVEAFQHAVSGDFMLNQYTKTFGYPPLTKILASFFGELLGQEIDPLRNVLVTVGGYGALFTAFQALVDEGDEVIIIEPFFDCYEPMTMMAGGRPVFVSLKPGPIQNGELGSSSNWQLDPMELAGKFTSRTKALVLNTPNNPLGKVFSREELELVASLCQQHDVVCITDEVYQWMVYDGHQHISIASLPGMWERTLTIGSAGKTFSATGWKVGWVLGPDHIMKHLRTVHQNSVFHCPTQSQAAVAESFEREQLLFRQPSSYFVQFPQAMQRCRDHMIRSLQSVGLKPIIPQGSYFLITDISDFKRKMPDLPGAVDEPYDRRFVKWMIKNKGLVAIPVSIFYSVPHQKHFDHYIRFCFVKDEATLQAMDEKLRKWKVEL

[4] = target: T5, threonine aldolase (Tha1) (Mus musculus, UniProt Q6XPS7)
T5 sequence (Q6XPS7 41-400): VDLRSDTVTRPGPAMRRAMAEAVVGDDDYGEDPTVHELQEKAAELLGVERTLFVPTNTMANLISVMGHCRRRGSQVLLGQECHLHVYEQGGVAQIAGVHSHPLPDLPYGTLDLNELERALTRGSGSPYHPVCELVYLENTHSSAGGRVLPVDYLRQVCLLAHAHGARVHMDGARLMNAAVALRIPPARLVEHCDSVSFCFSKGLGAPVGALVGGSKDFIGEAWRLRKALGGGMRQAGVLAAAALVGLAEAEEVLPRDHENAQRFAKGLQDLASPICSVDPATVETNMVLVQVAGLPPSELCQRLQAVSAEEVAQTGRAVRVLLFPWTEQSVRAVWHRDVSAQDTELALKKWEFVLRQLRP

SHMT2 [5] = target: T1, SHMT2; design: Threonine cleavage coupled to alcohol dehydrogenase, NADH depletion at 340 nm, Michaelis-Menten fit; conditions: substrate
Description: (§1) The HTMLA activity was measured by coupling the aldol cleavage of HTML with the oxidation of TMABA by NAD^+ catalyzed by TMABADH. The rate of the reaction was calculated from the rate of appearance in absorbance at 340 nm, due to the formation of NADH, using a value of ε340 = 6220 cm^−1·M^−1. The reaction was carried out using 1 µM SHMT1 or 4 µM SHMT2 in 50 mM potassium phosphate, pH 7.5, containing 1 mM EDTA, 5 mM 2-mercaptoethanol, 0.5 mM NAD^+ and 8 µM TMABADH, at 37 °C. For Tha1 (1 µM) and eTA (0.1 µM) we kept the same conditions but a different temperature (30 °C) due to their low stability at 37 °C. The rate of L-allo-threonine and threonine cleavage was measured by coupling the reaction with reduction of the product acetaldehyde by NADH and alcohol dehydrogenase. With L-allo-threonine as substrate were reduced the amount of SHMT enzymes, 0.15 µM for SHMT1 and 1 µM for SHMT2.The rate of the reaction was calculated from the rate of disappearance in absorbance at 340 nm, due to NADH depletion.

SHMT1 [6] = target: T3, SHMT1; design: Threonine cleavage coupled to alcohol dehydrogenase, NADH depletion at 340 nm, Michaelis-Menten fit; conditions: substrate
Description: as §1

SHMT1 [7] = target: T3, SHMT1
SHMT2 [8] = target: T1, SHMT2
[9] = target: T5, threonine aldolase (Tha1); test: X-ray crystal structure (monoclinic C2 form); format: binding; design: without the first 40 amino acids (predicted mitochondrial signal)
[10] = substrate: C[C@H](O)[C@H](N)C(=O)O; test: purified protein, by the assay type; design: Threonine cleavage coupled to alcohol dehydrogenase, NADH depletion at 340 nm, Michaelis-Menten fit; conditions: pH 7.5
Description: as §1

[11] = substrate: C[C@@H](O)[C@H](N)C(=O)O; test: purified protein, by the assay type; design: Threonine cleavage coupled to alcohol dehydrogenase, NADH depletion at 340 nm, Michaelis-Menten fit; conditions: pH 7.5
Description: as §1

[12] = substrate: C[N+](C)(C)CCC[C@H](O)[C@H](N)C(=O)[O-]; test: TMABADH-coupled spectrophotometric aldolase assay (Km); 1H NMR; format: biochemical, Mus musculus; conditions: PLP
[13] = target: the molecule itself; test: crystal structure; sitting drop at 18 °C, 0.2 M sodium nitrate, 0.1 M Bis-Tris propane pH 8.5, 20% w/v PEG 3350; space groups F222 (one molecule in the ASU) and C2 (two molecules in the ASU); tetramer formed by crystallographic symmetries

Molecule: C[N+](C)(C)CCC[C@H](O)[C@H](N)C(=O)[O-] [HTML]
Km (SHMT2 [1]): 0.8 mM | TMABADH-coupled spectrophotometric aldolase assay [2]: Characterization of its catalytic efficiency for L-allo-threonine and HTML, showed high activity with both substrates | Km (SHMT1 [3]): 3.79 mM | Ki (KYAT1): 4 mM

alcohol dehydrogenase-coupled spectrophotometric aldolase assay (kcat/Km) [4]: ~ 10^1 s^-1 M^-1 | Km (SHMT2 [5]): 41.2 ± 3.43 mM | Km (SHMT1 [6]): 36.5 ± 2.48 mM
Molecule: C[C@@H](O)[C@H](N)C(=O)O [L-threonine]

alcohol dehydrogenase-coupled spectrophotometric aldolase assay (kcat/Km) [4]: ~ 10^2 s^-1 M^-1 | Km (SHMT2 [5]): 1.34 ± 0.115 mM | Km (SHMT1 [6]): 0.226 ± 0.017 mM | alcohol dehydrogenase-coupled spectrophotometric aldolase assay (kcat/Km) (SHMT1 [7]): ~ 10^4 s^-1 M^-1 | alcohol dehydrogenase-coupled spectrophotometric aldolase assay (kcat/Km) (SHMT2 [8]): ~ 10^2 s^-1 M^-1
Molecule: C[C@H](O)[C@H](N)C(=O)O [L-allo-threonine]

Molecule: Cc1ncc(COP(=O)(O)O)c(C=O)c1O [PLP]
X-ray crystal structure (monoclinic C2 form) [9]: In Tha1, the PLP cofactor, bound to Lys242, is stabilized in the active site by a network of hydrogen bonds

B1: threonine aldolase (Tha1) (Mus musculus) (protein)
chain: T5 sequence (Q6XPS7 41-400)
notes: without the first 40 amino acids (predicted mitochondrial signal)
Km [10]: 8.236 ± 0.86 mM | kcat/Km [10]: 238 ± 26.2 M⁻¹ s⁻¹ | Km [11]: 37.531 ± 10.873 mM | Km [12]: 0.169 mM

B2: mouse threonine aldolase (Tha1), truncated form without the first 40 amino acids (enzyme, UniProt Q6XPS7 41-400, looked up)
chain: T5 sequence (Q6XPS7 41-400)
modifications: PLP cofactor bound to Lys242 (visible only in the monoclinic structure)
notes: Threonine aldolase Tha1, Mus musculus, CDS NM_027919.4 without the first 40 amino acids (predicted mitochondrial signal); The plasmid was bought from GenScript; also called Htmla; hydroxytrimethyllysine aldolase; source: E. coli BL21 with pGRO7 (GroEL/GroES co-expressed), purified (HisTrap, Superdex 200 size exclusion); not shown: His tag (from the vector pET-28b)
stoichiometry N [13]: 4
